Data taken from patent publication US20240376126A1, “PRMT5 INHIBITOR AND THE USE THEREOF” (CYTOSINLAB THERAPEUTICS CO., LTD., priority 2022, published 2024).

What follows are molecules tested on HCT116 MTAP WT cells (assay: Proliferation inhibition of HCT116 cells in vitro (CellTiter Glo, 6 days)). Conditions: Homo sapiens, HCT-116, 144 h, read-out: Cell proliferation inhibition rate HCT116 MTAP WT IC50 (nm).
Assay type: cell-based
Text: (§1) Biological Test Example 2 Proliferation Inhibition of HCT116 and HCT116 MTAP-KO Cells In Vitro
(§2) HCT116 cell line was purchased from the Chinese Academy of Sciences Cell Bank, and the MTAP gene was knocked out by CRISPR/Cas9 technology to obtain HCT116-MTAP-KO cell line.
(§3) McCoy's 5A medium (Gibco, catalog No. 16600082), fetal bovine serum (Gibco, catalog No. 10099141C), penicillin-streptomycin double antibody (Gibco, catalog No. 15140122), pancreatic enzyme (Gibco, catalog No. 25200056), CellTiter Glo assay kit (Promega, catalog No. G7572), 384-well transparent flat-bottomed black walled cell culture plate (Corning, catalog No. 3764), ultra micro sampler (Tecan, catalog No. D300e), Multimode reader (Biotek, catalog No. SynergyHTX)
(§4) • 1. Cell culture: HCT116 and HCT116-MTAP-KO cells were cultured in McCoy'5A medium+10% fetal bovine serum+1% penicillin-streptomycin double antibody; to ensure that they were always in the logarithmic growth phase and the cell viability greater than 95%. • 2. Compound concentration gradient preparation: The compound to be tested was added to a 384-well plate using an ultra micro sampler, starting from 30 μM (HCT116 cells) or 3 μM (HCT116-MTAP-KO cells), and diluted with DMSO at 3 times for a total of 9 concentrations and set up three duplicate wells. • 3. Treatment of cells with compounds: Trypsin-digested HCT116 or HCT116-MTAP-KO cell suspension was added to the 384-well plates spotted with the compounds to be tested at 40 μL per well, i.e., 100 cells per well, and the final concentration of DMSO was 0.4%. The cell culture plate was incubated at 37° C. in a 5% CO2 incubator for 6 days. • 4. Detection: 20 μL of CellTiter Glo reagent was added to each well of the cell culture plate and incubated at room temperature for 30 minutes. A multimode reader was used to detect the luminescence signal at […]. • 5. Data analysis:
(§5) The data was fitted with GraphPad Prism 8.0 software using a four parameter inhibitor-reaction model to obtain the […] (half inhibitory concentration) of the test compounds.
(§6) The first column represents cell proliferation inhibition rate HCT116 MTAP WT IC50 (nm), and the second column represents cell proliferation inhibition rate HCT116-MTAP null IC50 (nm): […]

Structure (SMILES) | IC50 [nM]
Cc1cc2cc(C(=O)N(Cc3cn4ccccc4n3)C(C)c3ncccn3)c(F)cc2nc1N (stereo not drawn) [Example 38] | 1000 to 10000
[2H]C([2H])([2H])N(Cc1cn2cc(C(F)(F)F)ccc2n1)C(=O)c1ccc2nc(N)c3c(c2c1)COC3C (stereo not drawn) [Example 50] | 1000 to 10000
C[C@@H]1OCc2c1c(N)nc1ccc(C(=O)N(Cc3cn4cc(C(F)(F)F)ccc4n3)c3cnn(C)c3)cc21 [Example 49] | 1000 to 10000
Cn1cc(N(Cc2cn3cc(C(F)(F)F)ccc3n2)C(=O)c2ccc3nc(N)c4cnn(C)c4c3c2)cn1 [Example 16] | 1000 to 10000
COCCN(Cc1cn2ccccc2n1)C(=O)c1cc2c(cc1F)nc(N)c1cnn(C)c12 [Example 11] | 1000 to 10000
CCN(C(=O)c1cc2cc(C)c(N)nc2cc1F)C(C)c1cn2ccccc2n1 (stereo not drawn) [Example 40] | 1000 to 10000
Cn1ncc2c(N)nc3cc(F)c(C(=O)N(Cc4cn5ccccc5n4)C4CCOC4)cc3c21 (stereo not drawn) [Example 22] | 1000 to 10000
CC1OCc2c1c(N)nc1ccc(C(=O)N(Cc3cn4ccccc4n3)CC(F)F)cc21 (stereo not drawn) [Example 66] | 1000 to 10000
CC(C)CN(Cc1nc2ccccn2c1F)C(=O)c1cc2c(cc1F)nc(N)c1cnn(C)c12 [Example 58] | 100 to 1000
Cn1ncc2c(N)nc3cc(F)c(C(=O)N(Cc4cn5ccccc5n4)C4CCCCC4O)cc3c21 (stereo not drawn) [Example 24] | 1000 to 10000
Cc1cc2cc(C(=O)N(Cc3cn4cc(C(F)(F)F)ccc4n3)C(C)c3ncccn3)c(F)cc2nc1N (stereo not drawn) [Example 39] | 1000 to 10000

The next lines start with the values.

IC50 [nM] | Structure (SMILES)
1000 to 10000 | CCN(Cc1cn2cc(F)ccc2n1)C(=O)c1cc2c(cc1F)nc(N)c1c(C)ncn12 [Example 267]
1000 to 10000 | Cc1ncc2c(N)nc3ccc(C(=O)N(Cc4nc5cnccc5s4)CC(C)C)cc3n12 [Example 160]
1000 to 10000 | Cc1ncc2c(N)nc3cc(F)c(C(=O)N(Cc4cn5ccccc5n4)C4CCCC4O)cc3n12 (stereo not drawn) [Example 190]
1000 to 10000 | CC1OCc2c1c(N)nc1ccc(C(=O)N(Cc3cn4cc(C(F)F)ccc4n3)c3cnn(C)c3)cc21 (stereo not drawn) [Example 78]
1000 to 10000 | CC(c1ncccn1)N(Cc1nc2cc(C(F)(F)F)ccc2s1)C(=O)c1ccc2nc(N)c3c(c2c1)CCC3 (stereo not drawn) [Example 153]
1000 to 10000 | COc1ccc(N(Cc2cn3ccccc3n2)C(=O)c2cc3c(cc2F)nc(N)c2cnc(C)n23)cn1 [Example 229]
1000 to 10000 | CCN(Cc1cn2ccccc2n1)C(=O)c1cc2c(cc1C)nc(N)c1cnc(C)n12 [Example 268]
100 to 1000 | C[C@H]1COC[C@@H](c2cc3ccccn3n2)N1C(=O)c1cc2c(cc1F)nc(N)c1cnn(C)c12 [Example 123]
1000 to 10000 | CC1OCc2c1c(N)nc1ccc(C(=O)N3C(C)COCC3c3cn4cc(C(F)(F)F)ccc4n3)cc21 (stereo not drawn) [Example 67]
1000 to 10000 | CC(C)N(Cc1nc2ccccc2[nH]1)C(=O)c1ccc2cc(N)c3c(c2c1)CCC3 [Example 130]
1000 to 10000 | Cc1ncn2c1c(N)nc1cc(F)c(C(=O)N(C)C3COc4cc(-c5cnn(C)c5)ccc43)cc12 (stereo not drawn) [Example 226]
1000 to 10000 | Cc1ncc2c(N)nc3cc(F)c(C(=O)N(Cc4cn5ccccc5n4)c4cccnc4)cc3n12 [Example 199]
1000 to 10000 | Cc1nc(C)n2c1c(N)nc1cc(F)c(C(=O)N(Cc3cn4ccccc4n3)CC(C)C)cc12 [Example 162]
1000 to 10000 | [2H]C([2H])([2H])N(Cc1cn2cc(C(F)(F)F)ccc2n1)C(=O)c1cc2c(cc1F)nc(N)c1cnc(C)n12 [Example 173]

These molecules were tested on HCT116-MTAP-KO (MTAP null) cells (assay: Proliferation inhibition of HCT116 MTAP-KO cells in vitro (CellTiter Glo, 6 days)). Conditions: HCT116-MTAP null, 144 h, read-out: Cell proliferation inhibition rate HCT116-MTAP null IC50 (nm).
Assay type: cell-based
Text: as §1, §2, §3, §4, §5, §6

Structure (SMILES) | IC50 [nM]
Cc1cc2cc(C(=O)N(Cc3cn4ccccc4n3)C(C)c3ncccn3)c(F)cc2nc1N (stereo not drawn) [Example 38] | < 100
[2H]C([2H])([2H])N(Cc1cn2cc(C(F)(F)F)ccc2n1)C(=O)c1ccc2nc(N)c3c(c2c1)COC3C (stereo not drawn) [Example 50] | 100 to 1000
C[C@@H]1OCc2c1c(N)nc1ccc(C(=O)N(Cc3cn4cc(C(F)(F)F)ccc4n3)c3cnn(C)c3)cc21 [Example 49] | < 100
Cn1cc(N(Cc2cn3cc(C(F)(F)F)ccc3n2)C(=O)c2ccc3nc(N)c4cnn(C)c4c3c2)cn1 [Example 16] | 100 to 1000
COCCN(Cc1cn2ccccc2n1)C(=O)c1cc2c(cc1F)nc(N)c1cnn(C)c12 [Example 11] | < 100
CCN(C(=O)c1cc2cc(C)c(N)nc2cc1F)C(C)c1cn2ccccc2n1 (stereo not drawn) [Example 40] | < 100
Cn1ncc2c(N)nc3cc(F)c(C(=O)N(Cc4cn5ccccc5n4)C4CCOC4)cc3c21 (stereo not drawn) [Example 22] | 100 to 1000
CC1OCc2c1c(N)nc1ccc(C(=O)N(Cc3cn4ccccc4n3)CC(F)F)cc21 (stereo not drawn) [Example 66] | 100 to 1000
CC(C)CN(Cc1nc2ccccn2c1F)C(=O)c1cc2c(cc1F)nc(N)c1cnn(C)c12 [Example 58] | < 100
Cn1ncc2c(N)nc3cc(F)c(C(=O)N(Cc4cn5ccccc5n4)C4CCCCC4O)cc3c21 (stereo not drawn) [Example 24] | < 100
Cc1cc2cc(C(=O)N(Cc3cn4cc(C(F)(F)F)ccc4n3)C(C)c3ncccn3)c(F)cc2nc1N (stereo not drawn) [Example 39] | < 100

Further lines, results first:

IC50 [nM] | Structure (SMILES)
< 100 | CCN(Cc1cn2cc(F)ccc2n1)C(=O)c1cc2c(cc1F)nc(N)c1c(C)ncn12 [Example 267]
100 to 1000 | Cc1ncc2c(N)nc3ccc(C(=O)N(Cc4nc5cnccc5s4)CC(C)C)cc3n12 [Example 160]
100 to 1000 | Cc1ncc2c(N)nc3cc(F)c(C(=O)N(Cc4cn5ccccc5n4)C4CCCC4O)cc3n12 (stereo not drawn) [Example 190]
< 100 | CC1OCc2c1c(N)nc1ccc(C(=O)N(Cc3cn4cc(C(F)F)ccc4n3)c3cnn(C)c3)cc21 (stereo not drawn) [Example 78]
100 to 1000 | CC(c1ncccn1)N(Cc1nc2cc(C(F)(F)F)ccc2s1)C(=O)c1ccc2nc(N)c3c(c2c1)CCC3 (stereo not drawn) [Example 153]
< 100 | COc1ccc(N(Cc2cn3ccccc3n2)C(=O)c2cc3c(cc2F)nc(N)c2cnc(C)n23)cn1 [Example 229]
100 to 1000 | CCN(Cc1cn2ccccc2n1)C(=O)c1cc2c(cc1C)nc(N)c1cnc(C)n12 [Example 268]
< 100 | C[C@H]1COC[C@@H](c2cc3ccccn3n2)N1C(=O)c1cc2c(cc1F)nc(N)c1cnn(C)c12 [Example 123]
100 to 1000 | CC1OCc2c1c(N)nc1ccc(C(=O)N3C(C)COCC3c3cn4cc(C(F)(F)F)ccc4n3)cc21 (stereo not drawn) [Example 67]
< 100 | CC(C)N(Cc1nc2ccccc2[nH]1)C(=O)c1ccc2cc(N)c3c(c2c1)CCC3 [Example 130]
100 to 1000 | Cc1ncn2c1c(N)nc1cc(F)c(C(=O)N(C)C3COc4cc(-c5cnn(C)c5)ccc43)cc12 (stereo not drawn) [Example 226]
100 to 1000 | Cc1ncc2c(N)nc3cc(F)c(C(=O)N(Cc4cn5ccccc5n4)c4cccnc4)cc3n12 [Example 199]
100 to 1000 | Cc1nc(C)n2c1c(N)nc1cc(F)c(C(=O)N(Cc3cn4ccccc4n3)CC(C)C)cc12 [Example 162]
100 to 1000 | [2H]C([2H])([2H])N(Cc1cn2cc(C(F)(F)F)ccc2n1)C(=O)c1cc2c(cc1F)nc(N)c1cnc(C)n12 [Example 173]

Same assay, conditions: read-out: Cell proliferation inhibition rate HCT116-MTAP null IC50 (nm)

Structure (SMILES) | IC50 [nM]
[2H]C([2H])([2H])N(Cc1cn2cc(C(F)(F)F)ccc2n1)C(=O)c1ccc2nc(N)c3c(c2c1)COC3C (stereo not drawn) [Example 50] | < 100
